Reference: ChEMBL document CHEMBL4507269, “Data for DCP probe BAY-386” (2021)
Active and inactive are the calls of the source. The rule behind the calls is not given here.

Key:
[1] = target: T1, Alpha-1D adrenergic receptor (Homo sapiens) (UniProt P25100); assay: Inhibition of Adrenergic alpha1D at 10 µM in the Eurofins-Panlabs radioligand binding assay (Eurofins_assay_203400); settings: Compound concentration 10.0 uM
T1 sequence (whole entry): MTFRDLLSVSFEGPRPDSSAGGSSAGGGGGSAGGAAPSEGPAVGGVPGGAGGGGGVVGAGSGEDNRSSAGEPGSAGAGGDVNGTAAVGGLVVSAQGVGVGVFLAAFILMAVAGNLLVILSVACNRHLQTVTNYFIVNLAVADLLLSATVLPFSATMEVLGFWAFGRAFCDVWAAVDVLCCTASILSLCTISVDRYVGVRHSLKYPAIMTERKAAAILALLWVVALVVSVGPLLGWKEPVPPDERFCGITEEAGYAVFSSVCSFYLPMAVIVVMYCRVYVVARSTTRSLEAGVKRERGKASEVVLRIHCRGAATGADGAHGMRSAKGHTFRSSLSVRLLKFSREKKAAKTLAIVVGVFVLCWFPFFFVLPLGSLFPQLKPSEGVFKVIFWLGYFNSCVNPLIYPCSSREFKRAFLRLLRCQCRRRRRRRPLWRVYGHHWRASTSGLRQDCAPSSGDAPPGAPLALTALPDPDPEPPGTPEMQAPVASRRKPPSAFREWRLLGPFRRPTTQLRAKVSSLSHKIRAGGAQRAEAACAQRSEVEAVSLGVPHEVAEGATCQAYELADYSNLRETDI

[2] = species on record: Rattus norvegicus; assay: Testosterone Eurofins-Panlabs radioligand binding assay; parameters: ligand concentration 1.5 nM; settings: Compound concentration 10.0 uM
[3] = target: B1 bradykinin receptor (Homo sapiens) (UniProt P46663); assay: Inhibition of Bradykinin B1 at 10 µM in the Eurofins-Panlabs radioligand binding assay (Eurofins_assay_212510); settings: Compound concentration 10.0 uM
Sequence of B1 bradykinin receptor (Homo sapiens) (P46663 whole entry): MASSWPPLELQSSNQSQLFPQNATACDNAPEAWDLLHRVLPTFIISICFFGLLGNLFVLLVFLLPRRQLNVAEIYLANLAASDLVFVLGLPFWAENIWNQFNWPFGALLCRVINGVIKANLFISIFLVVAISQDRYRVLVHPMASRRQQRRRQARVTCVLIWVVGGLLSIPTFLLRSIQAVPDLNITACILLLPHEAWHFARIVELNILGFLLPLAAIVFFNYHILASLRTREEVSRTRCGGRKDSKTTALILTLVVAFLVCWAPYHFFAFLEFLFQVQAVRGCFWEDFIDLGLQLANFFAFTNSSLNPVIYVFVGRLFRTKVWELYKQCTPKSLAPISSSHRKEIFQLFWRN

[4] = target: Epidermal growth factor receptor (Homo sapiens) (UniProt P00533); assay: Inhibition of Epidermal Growth Factor (EGF) at 10 µM in the Eurofins-Panlabs radioligand binding assay (Eurofins_assay_225510); settings: Compound concentration 10.0 uM
Sequence of Epidermal growth factor receptor (Homo sapiens) (P00533 whole entry): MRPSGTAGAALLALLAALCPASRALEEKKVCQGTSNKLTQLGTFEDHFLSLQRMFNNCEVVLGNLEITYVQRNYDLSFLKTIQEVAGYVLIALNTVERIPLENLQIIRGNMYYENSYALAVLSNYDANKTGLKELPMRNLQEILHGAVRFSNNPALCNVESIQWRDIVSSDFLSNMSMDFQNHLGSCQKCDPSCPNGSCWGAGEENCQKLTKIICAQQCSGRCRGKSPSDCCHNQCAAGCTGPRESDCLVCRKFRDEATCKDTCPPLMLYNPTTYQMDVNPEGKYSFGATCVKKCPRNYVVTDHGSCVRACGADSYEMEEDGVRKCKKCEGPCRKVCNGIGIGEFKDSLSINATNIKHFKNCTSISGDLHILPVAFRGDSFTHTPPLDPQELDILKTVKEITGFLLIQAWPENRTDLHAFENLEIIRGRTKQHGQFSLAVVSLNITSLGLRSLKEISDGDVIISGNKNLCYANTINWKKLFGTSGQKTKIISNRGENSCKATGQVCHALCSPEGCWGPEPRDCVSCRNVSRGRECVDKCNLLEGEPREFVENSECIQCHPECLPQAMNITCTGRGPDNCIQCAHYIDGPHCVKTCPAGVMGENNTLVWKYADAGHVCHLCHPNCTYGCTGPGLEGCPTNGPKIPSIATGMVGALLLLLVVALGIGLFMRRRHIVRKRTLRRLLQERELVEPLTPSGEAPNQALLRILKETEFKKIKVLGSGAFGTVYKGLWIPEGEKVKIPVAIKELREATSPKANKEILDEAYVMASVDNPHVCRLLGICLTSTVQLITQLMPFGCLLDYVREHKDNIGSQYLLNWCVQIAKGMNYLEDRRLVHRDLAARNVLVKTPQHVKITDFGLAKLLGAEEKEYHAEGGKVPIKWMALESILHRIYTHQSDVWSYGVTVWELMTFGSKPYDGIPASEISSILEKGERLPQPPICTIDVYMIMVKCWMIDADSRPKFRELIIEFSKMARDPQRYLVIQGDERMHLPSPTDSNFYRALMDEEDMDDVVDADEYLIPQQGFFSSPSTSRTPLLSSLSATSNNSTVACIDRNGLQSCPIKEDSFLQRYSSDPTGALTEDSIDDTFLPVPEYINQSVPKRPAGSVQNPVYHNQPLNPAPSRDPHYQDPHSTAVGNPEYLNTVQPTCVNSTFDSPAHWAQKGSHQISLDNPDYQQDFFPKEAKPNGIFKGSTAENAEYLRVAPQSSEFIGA

[5] = target: Neuropeptide Y receptor type 1 (Homo sapiens) (UniProt P25929); assay: Inhibition of Neuropeptide Y Y1 at 10 µM in the Eurofins-Panlabs radioligand binding assay (Eurofins_assay_257010); settings: Compound concentration 10.0 uM
Sequence of Neuropeptide Y receptor type 1 (Homo sapiens) (P25929 whole entry): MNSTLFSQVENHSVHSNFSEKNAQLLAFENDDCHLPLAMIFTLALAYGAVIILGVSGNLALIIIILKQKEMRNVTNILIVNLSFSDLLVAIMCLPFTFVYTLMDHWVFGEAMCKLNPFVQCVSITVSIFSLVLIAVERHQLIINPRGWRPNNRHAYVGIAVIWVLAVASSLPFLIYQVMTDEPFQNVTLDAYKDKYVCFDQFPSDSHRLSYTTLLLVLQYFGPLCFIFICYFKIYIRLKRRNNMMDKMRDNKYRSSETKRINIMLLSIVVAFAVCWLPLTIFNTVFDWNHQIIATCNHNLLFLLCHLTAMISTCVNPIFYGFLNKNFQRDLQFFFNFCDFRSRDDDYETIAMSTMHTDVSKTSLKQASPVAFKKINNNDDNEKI

[6] = target: hERG (KCNH2) (Homo sapiens, UniProt Q12809); assay: Inhibition of Potassium Channel hERG at 10 µM in the Eurofins-Panlabs radioligand binding assay (Eurofins_assay_265900); parameters: ligand concentration 1.5 nM, non-specific ligand with concentration Astemizole, incubation time 60 min, incubation temperature 25 °C; settings: HEK-293 cells that express human recombinant hERG, probe [3H] Astemizole, compound concentration 10 uM
Sequence of hERG (KCNH2) (Q12809 whole entry): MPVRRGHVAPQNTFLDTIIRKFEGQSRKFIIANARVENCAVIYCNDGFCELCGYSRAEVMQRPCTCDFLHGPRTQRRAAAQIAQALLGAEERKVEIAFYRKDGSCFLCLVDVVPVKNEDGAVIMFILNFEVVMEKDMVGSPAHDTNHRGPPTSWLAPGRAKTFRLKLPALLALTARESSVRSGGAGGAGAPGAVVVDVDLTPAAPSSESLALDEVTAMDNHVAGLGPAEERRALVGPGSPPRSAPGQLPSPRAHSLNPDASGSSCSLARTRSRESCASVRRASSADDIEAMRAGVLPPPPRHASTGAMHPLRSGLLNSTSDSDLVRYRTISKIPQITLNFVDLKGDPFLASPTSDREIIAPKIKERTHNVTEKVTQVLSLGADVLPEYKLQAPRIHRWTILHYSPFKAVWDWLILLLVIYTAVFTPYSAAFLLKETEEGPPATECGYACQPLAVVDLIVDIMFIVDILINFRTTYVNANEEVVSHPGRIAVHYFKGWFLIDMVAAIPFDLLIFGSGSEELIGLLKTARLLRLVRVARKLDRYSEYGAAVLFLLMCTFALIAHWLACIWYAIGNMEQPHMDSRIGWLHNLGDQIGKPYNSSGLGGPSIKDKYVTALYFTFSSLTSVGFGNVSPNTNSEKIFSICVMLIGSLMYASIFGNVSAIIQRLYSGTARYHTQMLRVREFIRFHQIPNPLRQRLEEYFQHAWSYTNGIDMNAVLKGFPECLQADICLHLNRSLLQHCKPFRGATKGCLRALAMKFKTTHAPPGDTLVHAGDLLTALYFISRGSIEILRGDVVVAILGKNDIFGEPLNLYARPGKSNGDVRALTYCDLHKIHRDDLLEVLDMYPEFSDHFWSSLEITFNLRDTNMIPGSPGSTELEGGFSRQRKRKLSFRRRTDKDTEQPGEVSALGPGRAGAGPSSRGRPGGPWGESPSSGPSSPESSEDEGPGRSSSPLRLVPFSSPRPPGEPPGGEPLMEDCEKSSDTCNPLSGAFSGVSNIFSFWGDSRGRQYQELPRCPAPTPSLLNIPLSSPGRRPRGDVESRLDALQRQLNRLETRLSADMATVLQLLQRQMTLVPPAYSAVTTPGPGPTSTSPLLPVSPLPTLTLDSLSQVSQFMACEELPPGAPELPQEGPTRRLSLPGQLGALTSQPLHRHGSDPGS

[7] = species on record: Oryctolagus cuniculus; assay: Inhibition of Purinergic P2X at 10 µM in the Eurofins-Panlabs radioligand binding assay (Eurofins_assay_268700); format: protein assay; settings: Compound concentration 10.0 uM
[8] = target: T2, Proteinase-activated receptor 1 (Homo sapiens, UniProt P25116); assay: Binding assay (platelet membranes)
T2 sequence (P25116 whole entry): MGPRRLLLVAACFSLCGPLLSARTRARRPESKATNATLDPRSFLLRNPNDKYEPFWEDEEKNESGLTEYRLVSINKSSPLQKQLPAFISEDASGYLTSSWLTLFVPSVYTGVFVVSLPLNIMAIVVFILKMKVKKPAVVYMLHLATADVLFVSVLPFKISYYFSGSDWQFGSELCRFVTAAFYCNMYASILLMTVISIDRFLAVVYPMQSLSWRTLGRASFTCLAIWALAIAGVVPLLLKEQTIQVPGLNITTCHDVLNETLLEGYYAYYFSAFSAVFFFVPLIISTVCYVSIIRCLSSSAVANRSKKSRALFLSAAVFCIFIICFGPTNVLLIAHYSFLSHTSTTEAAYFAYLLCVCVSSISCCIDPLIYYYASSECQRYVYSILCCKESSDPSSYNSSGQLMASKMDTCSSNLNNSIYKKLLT

[9] = target: Sigma non-opioid intracellular receptor 1 (Homo sapiens) (UniProt Q99720); settings: Compound concentration 10.0 uM
Sequence of Sigma non-opioid intracellular receptor 1 (Homo sapiens) (Q99720 whole entry): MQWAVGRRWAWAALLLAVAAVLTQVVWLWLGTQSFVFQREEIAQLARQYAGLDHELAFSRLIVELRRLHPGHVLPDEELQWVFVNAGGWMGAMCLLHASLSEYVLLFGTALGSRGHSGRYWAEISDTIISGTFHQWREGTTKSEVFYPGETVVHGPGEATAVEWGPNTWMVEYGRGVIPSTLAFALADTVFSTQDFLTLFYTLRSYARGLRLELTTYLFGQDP

[10] = target: T3, Alpha-1A adrenergic receptor (Homo sapiens) (UniProt P35348); settings: Rattus norvegicus; Compound concentration 10.0 uM
T3 sequence (whole entry): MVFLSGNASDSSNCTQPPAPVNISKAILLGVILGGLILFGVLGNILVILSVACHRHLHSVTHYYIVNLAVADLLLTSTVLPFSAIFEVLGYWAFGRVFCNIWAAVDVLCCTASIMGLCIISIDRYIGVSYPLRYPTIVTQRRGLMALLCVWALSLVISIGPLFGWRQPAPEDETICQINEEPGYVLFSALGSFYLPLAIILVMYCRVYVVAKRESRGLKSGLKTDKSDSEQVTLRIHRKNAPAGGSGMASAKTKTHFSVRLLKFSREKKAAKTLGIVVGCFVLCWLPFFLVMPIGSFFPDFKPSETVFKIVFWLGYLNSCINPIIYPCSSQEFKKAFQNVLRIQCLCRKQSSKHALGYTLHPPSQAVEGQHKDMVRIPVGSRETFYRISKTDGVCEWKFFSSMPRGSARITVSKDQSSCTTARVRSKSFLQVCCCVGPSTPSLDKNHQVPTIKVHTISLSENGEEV

[11] = target: Beta-2 adrenergic receptor (Homo sapiens) (UniProt P07550); settings: Compound concentration 10.0 uM
Sequence of Beta-2 adrenergic receptor (Homo sapiens) (P07550 whole entry, looked up): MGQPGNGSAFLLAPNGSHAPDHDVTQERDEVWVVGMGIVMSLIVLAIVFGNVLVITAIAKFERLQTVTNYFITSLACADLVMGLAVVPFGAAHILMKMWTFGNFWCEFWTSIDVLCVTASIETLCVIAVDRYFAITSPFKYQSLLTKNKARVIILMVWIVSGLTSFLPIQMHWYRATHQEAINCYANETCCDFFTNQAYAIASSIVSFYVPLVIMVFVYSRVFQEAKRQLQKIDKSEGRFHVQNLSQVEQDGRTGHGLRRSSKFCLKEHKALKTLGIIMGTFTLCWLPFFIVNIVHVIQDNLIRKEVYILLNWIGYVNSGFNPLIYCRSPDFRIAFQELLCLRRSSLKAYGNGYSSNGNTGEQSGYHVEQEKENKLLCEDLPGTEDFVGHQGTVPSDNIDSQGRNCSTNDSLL

[12] = target: T4, Muscarinic acetylcholine receptor M2 (Homo sapiens) (UniProt P08172); settings: Compound concentration 10.0 uM
T4 sequence (whole entry): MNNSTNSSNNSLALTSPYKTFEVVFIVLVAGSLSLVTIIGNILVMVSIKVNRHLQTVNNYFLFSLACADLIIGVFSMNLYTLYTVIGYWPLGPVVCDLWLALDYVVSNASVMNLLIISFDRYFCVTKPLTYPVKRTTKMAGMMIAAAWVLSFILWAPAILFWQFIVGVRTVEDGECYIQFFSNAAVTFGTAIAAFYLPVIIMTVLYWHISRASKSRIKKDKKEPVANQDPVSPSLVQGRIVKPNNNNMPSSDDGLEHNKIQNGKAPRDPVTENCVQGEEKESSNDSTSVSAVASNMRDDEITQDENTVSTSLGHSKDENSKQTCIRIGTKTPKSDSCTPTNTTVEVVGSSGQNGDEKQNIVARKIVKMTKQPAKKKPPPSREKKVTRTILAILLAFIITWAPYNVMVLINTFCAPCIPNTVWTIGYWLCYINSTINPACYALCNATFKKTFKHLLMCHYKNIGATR

[13] = target: Mu-type opioid receptor (Homo sapiens) (UniProt P35372); settings: Compound concentration 10.0 uM
Sequence of Mu-type opioid receptor (Homo sapiens) (P35372 whole entry): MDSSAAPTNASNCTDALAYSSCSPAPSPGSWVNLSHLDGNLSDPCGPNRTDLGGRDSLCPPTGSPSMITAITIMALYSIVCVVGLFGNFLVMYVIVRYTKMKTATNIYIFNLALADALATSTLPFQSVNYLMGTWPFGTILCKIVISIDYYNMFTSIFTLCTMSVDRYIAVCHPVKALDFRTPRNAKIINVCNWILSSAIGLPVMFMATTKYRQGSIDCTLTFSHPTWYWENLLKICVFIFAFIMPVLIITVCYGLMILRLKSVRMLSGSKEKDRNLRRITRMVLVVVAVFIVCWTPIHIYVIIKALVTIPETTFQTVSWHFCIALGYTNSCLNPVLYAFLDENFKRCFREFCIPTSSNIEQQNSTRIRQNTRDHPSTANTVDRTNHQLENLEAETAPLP

[14] = target: Sodium-dependent serotonin transporter (Homo sapiens) (UniProt P31645); settings: Compound concentration 10.0 uM
Sequence of Sodium-dependent serotonin transporter (Homo sapiens) (P31645 whole entry, looked up): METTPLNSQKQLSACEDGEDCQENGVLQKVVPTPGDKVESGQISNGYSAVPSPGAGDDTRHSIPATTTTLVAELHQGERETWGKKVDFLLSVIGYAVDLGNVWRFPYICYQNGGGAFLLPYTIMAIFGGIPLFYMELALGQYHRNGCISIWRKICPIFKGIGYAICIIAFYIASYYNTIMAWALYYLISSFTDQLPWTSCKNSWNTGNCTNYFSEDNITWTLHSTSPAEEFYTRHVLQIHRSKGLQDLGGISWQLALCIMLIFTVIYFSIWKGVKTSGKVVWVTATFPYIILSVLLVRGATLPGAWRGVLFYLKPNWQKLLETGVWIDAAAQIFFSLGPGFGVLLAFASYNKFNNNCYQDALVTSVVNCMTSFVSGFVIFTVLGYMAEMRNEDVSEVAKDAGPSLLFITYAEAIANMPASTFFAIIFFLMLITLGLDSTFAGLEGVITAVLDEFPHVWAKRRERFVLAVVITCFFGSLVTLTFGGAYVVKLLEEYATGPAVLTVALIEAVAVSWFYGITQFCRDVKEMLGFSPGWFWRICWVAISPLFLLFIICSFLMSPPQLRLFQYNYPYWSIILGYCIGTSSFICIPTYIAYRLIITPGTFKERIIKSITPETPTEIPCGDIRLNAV

[15] = target: Mu-type opioid receptor (Homo sapiens) (UniProt P35372); assay: mu (MOP) (h) Eurofins-Cerep Cellular and Nuclear Receptor Functional Assays; settings: Compound concentration 10.0 uM

`O=C(N1CCS(=O)(=O)CC1)N1C[C@H](c2ccc(OC(F)(F)F)cc2)C[C@H](c2nc(C3CC3)no2)C1` [BAY-386] gave an inhibition [1] of -4%, an inhibition [2] of 11% and an inhibition [3] of 6%. For the same compound, the inhibition [4] was -7%, the inhibition [5] was 1% and the inhibition at 60 min, 10 µM [6] was 22% (not active). For the same compound, the inhibition [7] was 9%, the IC50 [8] was 56 nM (active) and the inhibition [9] was 40.3%. For the same compound, the inhibition [10] was 1%, the inhibition [11] was 0% and the inhibition [12] was -3%. It also gave an inhibition [13] of 6% and an inhibition [14] of 3%.

Compound `Cc1noc([C@H]2C[C@@H](c3ccc(C(F)(F)F)cc3)CN(C(=O)N3CCS(=O)(=O)C3)C2)n1` [BAY-448] has a % Inhibition of Control Agonist Response (Mean n=2) [15] of -4.8% and a % of Control Agonist Response (Mean n=2) [15] of 36%.
